US20230285498A1, “TREATMENTS FOR CANCERS HAVING KRAS MUTATIONS” (City of Hope, priority 2020, published 2023)
pIC50: −log10 of the molar value. Read-outs that look alike come from different tables or passages of the source.

Tests used:
SW1573 [1] = test: Cell proliferation assay, 2D (IncuCyte live cell imaging); type: cell-based; settings: SW1573
Description: The cells were seeded at density of 10000 cells/well 12 hours prior to the experiment. Once the cells attached to the plate the media was removed and the drugs were added to the cells. […] Cell proliferation was observed using the IncuCyte Live Imaging System for 72 hrs.
Knockdown of ITGB4 (Cat #SR302473C) at the mRNA level in the SW1573 cells was done using siRNAs purchased from OriGene Technologies (Rockville, Md., USA). JetPRIME transfection reagent (Polyplus Transfection, Illkirch, France) was used to transfect the siRNAs according to the manufacturer's protocol. Cells were seeded in 6-well plates (200,000 cells/well) and allowed to adhere overnight. Next day, 10 nM siRNA was transfected with 4 μl jetPRIME reagent in complete growth medium for each well. Next day cells were trypsinized, counted and re-plated on the 96 well plate for cell proliferation and drug assay. […] Cell growth medium was changed the next day and expression was detected 72 h post-transfection by immunoblotting.
(§1) The cells grown in 2D cultures were treated with various concentrations of the drug, and the effect on cell proliferation was determined in real time using the live cell proliferation assay (IncuCyte, Essen Bioscience, Inc.) as described in the methods.
(§2) Cell proliferation and apoptosis assay: Cell proliferation assays were performed using cell lines stably transfected with NucLight Red Lentivirus (Essen BioScience) to accurately visualize and count the nucleus of a single cell. Cells were seeded on a 96-well plate and allowed to adhere for 24 h. Test compounds were added at indicated concentrations. Caspase-3/7 Green Apoptosis Reagent (Essen BioScience) was also added as a green fluorescent indicator of caspase3/7-mediated apoptotic activity. To monitor cell proliferation and apoptosis over time, the plate was placed in the IncuCyte S3 Live Cell Imaging System (Essen BioScience) and images were acquired every 2 hours. Data analysis was generated by the IncuCyte software using a red fluorescence mask to accurately count each cell nucleus and a green fluorescence mask to measure apoptosis over time. 3D spheroid assay 3D spheroid experiments were performed using cell lines stably transfected with NucLight Red Lentivirus (Essen BioScience) to visualize red fluorescence as an indicator of cell viability. Cells were seeded on a 96-well ultra-low attachment plate and allowed to form spheroids overnight. Drug treatment was added as indicated along with Cytotox Green Reagent (Essen BioScience), used as a green fluorescence indicator of cell death due to loss of cell membrane integrity. To monitor cell proliferation and apoptosis over time, the plate was placed in the IncuCyte S3 Live Cell Imaging System (Essen BioScience) and images were acquired every 2 hours. Data analysis was generated by the IncuCyte software using a red fluorescence mask to accurately measure intensity and area of red fluorescence, indicating spheroid viability and a green fluorescence mask, indicating cell death. Cell cycle analysis.

H23 = test: as above; type: cell-based; settings: H23
Description: as §1, §2

H358 = test: as above; type: cell-based; settings: H358
Description: as §1, §2

SW1573 spheroids = test: 3D spheroid assay; type: cell-based; settings: SW1573
Description: (§3) The activation of apoptosis is marked with the increase in green fluorescence intensity.
(§4) To determine the sensitivities of the same cells in 3D, mKate expressing cells were used to generate spheroids. Spheroids were monitored in real time using the IncuCyte live cell imaging system (FIG. 1B).
as §2

H358 spheroids = test: 3D spheroid assay; type: cell-based; settings: H358
Description: as §3, §4, §2

H23 spheroids = test: 3D spheroid assay; type: cell-based; settings: H23
Description: as §3, §4, §2

SW1573 NSCLC cells = test: Mouse SW1573 xenograft; type: in vivo, Athymic nude nu/nu mice
Description: Mouse xenograft studies. Athymic nude nu/nu mice were obtained from Charles River, Wilmington, Mass., and were acclimated for a week before beginning the experiment. All animal experiments were carried out in accordance with a protocol approved by the Institutional Animal Care and Use Committee (IACUC #16004). […] All 40 animals were injected with 1×10^6 SW1573 cells suspensions in 100 μl of PBS, subcutaneously into one flank of each mouse. At the same time, animals were randomized into treatment groups. Treatment was started 12 days after the SW1573 NSCLC cells implantation to see palpable tumor growth. Treatments were given to mice via oral gavage twice a week for 8 weeks. Animals were examined daily for signs of tumor growth. Tumors were measured in two dimensions using calipers and body weights were recorded. Photographs of animals were taken at day 1, day 7, day 14, day 21, day 28, day 35, day 42, day 49, and day 56 after treatment. Photographs of tumors were also taken at day 56 after treatment. At the end of the study, the mice were euthanized by CO2 asphyxiation followed by cervical dislocation. The tumor weights were compared between groups using an unpaired Student's t-test. A portion of the tumor was fixed in 10% buffered formaldehyde solution and paraffin-embedded for immuno-staining or was snap-frozen in liquid nitrogen for further molecular analysis such as western blotting.

SW1573 cells = test: Zebrafish larvae SW1573 xenotransplant; type: in vivo
Description: The inventors microinjected SW1573 cells into the perivitelline space of 48 hour post-fertilization (hpf) zebrafish larvae.

[2] = system: cisplatin-refractory KRAS mutant NSCLC cells; test: Sensitization of cisplatin-refractory cells; type: cell-based; settings: read-out: IC50 to sensitize cisplatin-refractory KRAS mutant NSCLC cells
Description: Furthermore, treating NSCLC cell lines that express high levels of ITGB4 and PXN (H358 and H2009) were treated with carfilzomib, H358 cells carrying the KRAS G12C mutation were more sensitive than H2009 cells harboring the G12A mutation. […] Taken together, these observations indicate that treating patients with carfilzomib in addition to targeting mutant KRAS will be more efficacious than carfilzomib treatment alone.

H23 cells = test: Zebrafish larvae H23 xenotransplant; type: in vivo; settings: sotorasib 12 μM, adagrasib 2 μM, carfilzomib 1.6 mM as printed; Day 3
SW1573 [3] = test: Drug combination synergy assay (inhibition matrix); type: cell-based; settings: Homo sapiens
Description: The synergy finder codes were used to determine the synergy between drugs for 48 possible combinations. The codes were run using the R-platform and synergy was calculated and represented as the synergy landscape.
Drug Combination Synergy Assay: For combination index (CI) calculation, SW1573 and H23 incured cell lines were seeded in 96-well plate with 5000 cells per well. Three biological replicates (three 96-well plates for each drug combination) were used. […] The drugs were used in linear dilution series with dilution factor of 2. […] Further, R package called SynergyFinder (He et al., 2018) was used to find the nature of drug-drug interaction (i.e. if they work in synergy or antagonistically or non-interactively). For this purpose, the drug response matrix is supplied to the mentioned package, which then uses several models namely Highest Single Agent (Berenbaum, 1989), Loewe additivity (Loewe, 1953), Bliss independence (Bliss, 1939) and Zero Interaction Potency (Yadav et al., 2015) to quantify the degree of drug synergy. The dose response matrix was used to calculate individual CI values for IC30, IC50 and IC70 drug treatments. The output values were used to plot isobolograms using the following formula. CI=IC50 (A) pair IC50 (A)+IC50 (B) pair IC50 (B)

C=CC(=O)N1CCN(c2ncnc3c(F)c(-c4c(O)cccc4F)c(Cl)cc23)CC1 [ARS1620, (S)-1-(4-(6-chloro-8-fluoro-7-(2-fluoro-6-hydroxyphenyl)quinazolin-4-yl)piperazin-1-yl)prop-2-en-1-one]
inhibition at 10 µM (SW1573 [1]; Homo sapiens, 10 μM, 72 hours, read-out: inhibition of proliferation / cell growth): 20%
pIC50 (SW1573 [1]; Homo sapiens, 72 hours, Example 6): < 5.00
inhibition of cell growth (H23; at 1.2 (unit not given)): 30%
inhibition at 5 µM (H23; Homo sapiens, NCI-H23, 5 μM, read-out: inhibition of cell growth): 50%
inhibition at 10 µM (H23; Homo sapiens, NCI-H23, 10 μM, 72 hours, read-out: inhibition of proliferation / cell growth): 80%
pIC50 (H23; Homo sapiens, NCI-H23, 72 hours, Example 6): 5.12
inhibition of cell growth (H358; 2.5, 5 or 10 μM): 50%
inhibition at 1.2 µM (H358; Homo sapiens, NCI-H358, 1.2 μM, 72 hours, read-out: inhibition of cell growth): 40%
inhibition at 10 µM (SW1573 spheroids; Homo sapiens, 10 μM, read-out: inhibition of spheroid area / reduction in spheroid growth): ~25%
reduction of spheroid mean red intensity (SW1573 spheroids; 5 μM): 40%
reduction of spheroid mean red intensity (H358 spheroids; 5 μM): 80%
reduction in spheroid growth (H358 spheroids; 10 μM): 70%
reduction of spheroid mean red intensity (H23 spheroids; 5 μM): 50%
reduction in spheroid growth (H23 spheroids; 10 μM): 70%

C=C(F)C(=O)N1CCN(c2nc(OC[C@@H]3CCCN3C)nc3c2CCN(c2cccc4cccc(Cl)c24)C3)C[C@@H]1CC#N [adagrasib]
better viability compared to untreated spheroids (SW1573 spheroids; 0.6 μM): 50%
spheroids inviable (red mean intensity, last time point) (H358 spheroids; 0.6 μM): 80%
spheroids inviable (red mean intensity, last time point) (H23 spheroids; 0.6 μM): 40%

CC(C)C[C@H](NC(=O)[C@H](CCc1ccccc1)NC(=O)CN1CCOCC1)C(=O)N[C@@H](Cc1ccccc1)C(=O)N[C@@H](CC(C)C)C(=O)[C@@]1(C)CO1 [carfilzomib]
effect on cell growth (SW1573 [1]; 20 nM): slows cell growth
tumor weight compared to control group (SW1573 NSCLC cells; end of study (day 56)): significant reduction in tumor weight
reduction in tumor area (SW1573 NSCLC cells; sotorasib 10 mg/kg, adagrasib 10 mg/kg, carfilzomib 2 mg/kg, oral gavage twice a week, day 56): ~56%
most effective dose, drug alone (obliterates SW1573 cells) (SW1573 cells): 1.6 µM
pIC50 [2]: 9.10
reduction of tumor growth (median) (H23 cells): ~82%
inhibition at 0.01 µM (SW1573 [3]; carfilzomib 10 nM, 72 hours, read-out: inhibition of growth): 60%

C[C@@H]1C[C@H](C)CN(S(=O)(=O)c2ccc3c(c2)C(=NO)c2cc(S(=O)(=O)N4C[C@H](C)C[C@H](C)C4)ccc2C3=NO)C1 [tegatrabetan]
inhibition at 0.01 µM (SW1573 [3]; tegatrabetan 10 nM, read-out: inhibition of cell growth): 10%
